Experimental data as given in patent publication US12162874B2, “Peptidomimetic-based antibody surrogate for HER2” (University of South Florida, priority 2021, dated 2024).
Where “and” joins values, the source holds several entries; their conditions need not be identical. Equal entries are not always repeated. Entries after “also recorded” stand apart in the source; their conditions may differ.

Assays:
SKBR3 cells = test: Inhibition of EGF-induced cell proliferation (CCK-8); type: cell-based; conditions: SKBR3, EGF 100 ng/mL
Experimental: SKBR3 cells were cultured in McCoy's 5A Medium (Gibco) medium containing 10% fetal bovine serum and 1% penicillin/streptomycin in an atmosphere of 5% CO2 at 37° C.
SKBR3 cells in good condition were seeded into a 96-well plate at a concentration of 1×10^3 cells/well in 100 μL of complete growth medium. After 24 hours of attachment at 37° C. and 5% CO2, medium was replaced by fresh serum reduced McCoy's 5A Medium and cell were serum-starved overnight. Then serum-reduced EGF (100 ng/mL) McCoy's 5A Medium in the presence of different concentration of M-3-6 and M-3-6-D was added to the cells in hexaplicate. After 72 h, the CCK-8 reagents were added according to the manufacturer's recommendations.

pronase = conditions: 0.1 mg/mL pronase, 100 mM ammonium bicarbonate buffer, 37° C., 24 h
Excerpt: Then, the reaction mixtures were concentrated in a speed vacuum to remove water and ammonium bicarbonate. The resulting residues were re-dissolved in H2O/MeCN and analyzed on a Waters analytical HPLC system.

P-HER2 [1] = test: Immunohistochemical staining of SKBR3 tumor sections; type: in vivo, mouse; conditions: tumors resected after sacrifice
Experimental: For the immunohistochemical analysis, the hydrated paraffin section was incubated in a blocking solution (10% donkey serum +5% nonfat dry milk +4% BSA +0.1% Triton X-100) for 10 min, and then incubated at 4° C. overnight with anti-P-HER2, P-AKT, P-ERK. After washing with PBS, the sections were incubated with diluted (1:200) biotinylated secondary antibody for 30 min. Subsequently, the sections were washed again in PBS and incubated for 30 min with the preformed avidin-horseradish peroxidase macromolecular complex. Development of peroxidase reaction was achieved by incubation in 0.01% 3, 3-diaminobenzidine tetrahydrochloride (DAB) in PBS containing 0.01% hydrogen peroxide for approximately 5 min at room temperature. Sections were then washed thoroughly in tap water, counterstained in haematoxylin, dehydrated in absolute alcohol, cleared in xylene and mounted in synthetic resin for microscopic examination.

P-HER2 [2] = test: Western blot of HER2 phosphorylation in SKBR3 cells; type: cell-based, human; conditions: for inhibition of HER2 phosphorylation (in words): SKBR3 cell lysates, western blot; for expression of P-HER2: 10 μM
Experimental: (§1) SKBR3 cells were seeded into a 6-well plate at a concentration of 1×10^5 cells/well. After 12 h attachment at 37° C. and 5% CO2, the cells were starved overnight in serum-reduced McCoy's 5A Medium followed by treatment with different concentration of M-3-6 or M-3-6-D for 4 h, and then washed with ice-cold PBS and resuspended in ice-cold RIPA buffer supplemented with Halt Protease and Phosphatase Inhibitor Cocktail. Subsequently, the cells were incubated on ice for 10 min and centrifuged at 14,000×g at 4° C. for 10 min. An equal amount of protein was run on 4-12% Bis-Tris gels, transferred to polyvinylidene difluoride membranes (Millipore) and western blotted with anti-phosphorylated HER2, anti-phosphorylated AKT, anti-phosphorylated ERK and GAPDH. The experiments were conducted in triplicates and repeated for three times.

SKBR3 tumor xenograft = test: Antitumor study in SKBR3 xenograft nude mice, tumor volume; type: in vivo, mouse; conditions: for tumor volume after the last drug injection on day 12: after end of dosing, until day 24
Experimental: Male BALB/c nude mice, 4-6 weeks old, were provided by the Shanghai Bikai Experimental Animal Center, with the license number SOXK (Hu) 2008-0016, and maintained under specific-pathogen-free conditions.
SKBR3 cells were harvested, resuspended in PBS, and injected subcutaneously into 4-6 weeks old Male BALB/c nude mice. […] Mice were injected through the intraperitoneal every two days for seven injections. 12 days after injection, the mice in each group were killed, and the tumors were removed for examination. The tumor volumes were determined by measuring length (1) and width (w) and calculating volume (V=lw^2/2).

HER2 ECD = biological target: T1, HER2 ECD (Homo sapiens, UniProt P04626); test: Surface plasmon resonance (SPR) binding to HER2
T1 construct: Fc (human IgG Fc); purchased Creative BioMart
T1 sequence (P04626 23-652): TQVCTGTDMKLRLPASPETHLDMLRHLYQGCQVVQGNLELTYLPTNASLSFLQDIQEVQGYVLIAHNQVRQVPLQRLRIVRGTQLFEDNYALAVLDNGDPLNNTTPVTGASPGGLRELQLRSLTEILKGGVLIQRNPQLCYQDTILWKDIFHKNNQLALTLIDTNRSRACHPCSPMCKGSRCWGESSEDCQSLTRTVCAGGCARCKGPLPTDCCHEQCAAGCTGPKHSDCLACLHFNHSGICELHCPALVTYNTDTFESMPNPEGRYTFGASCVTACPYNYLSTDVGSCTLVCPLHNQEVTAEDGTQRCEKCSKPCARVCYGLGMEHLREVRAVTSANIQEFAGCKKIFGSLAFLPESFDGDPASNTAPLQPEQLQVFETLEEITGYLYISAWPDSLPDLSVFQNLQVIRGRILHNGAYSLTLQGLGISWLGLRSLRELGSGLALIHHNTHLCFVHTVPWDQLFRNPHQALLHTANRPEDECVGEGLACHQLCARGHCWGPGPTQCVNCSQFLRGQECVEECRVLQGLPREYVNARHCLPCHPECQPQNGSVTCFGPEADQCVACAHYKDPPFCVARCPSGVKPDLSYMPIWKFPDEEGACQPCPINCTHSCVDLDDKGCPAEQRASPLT

P-ERK = test: Western blot of ERK phosphorylation in SKBR3 cells; type: cell-based; conditions: for phosphorylation of ERK (in words): SKBR3 cell lysates, western blot
Experimental: as §1

[3] = i.p. every two days for two weeks
Experimental: SKBR3 cells were harvested, resuspended in PBS, and injected subcutaneously into 4-6 weeks old Male BALB/c nude mice. […] Mice were injected through the intraperitoneal every two days for seven injections.

HER2 = biological target: T2, HER2 (Homo sapiens, UniProt P04626); test: Fluorescence polarization (FP) binding assay; conditions: 50 nM FITC labeled AApeptide, HER2 0 to 2 μM in PBS
T2 construct: Fc (human IgG Fc); purchased Creative BioMart
T2 sequence (P04626 23-652): as above
Experimental: The FP experiment was performed by incubating 50 nM FITC labeled AApeptides with HER2 (0 to 2 μM) in PBS. Dissociation constants (Kd) was determined by plotting the fluorescence anisotropy values as a function of protein concentration, and the plots were fitted to the following equation. The Lst is the concentration of the AApeptides and the x stands for the concentration of the protein. The experiments were conducted in triplicates and repeated for three times. y=FPmin+(FPmax−FPmin)*(KD+Lst+x-sqrt((KD+Lst+x)^2−4*Lst*x))/(2*Lst)

EGFR = EGFR (Homo sapiens, UniProt P00533); test: Surface plasmon resonance (SPR) binding to EGFR (selectivity)
Chain of EGFR (P00533 25-1210): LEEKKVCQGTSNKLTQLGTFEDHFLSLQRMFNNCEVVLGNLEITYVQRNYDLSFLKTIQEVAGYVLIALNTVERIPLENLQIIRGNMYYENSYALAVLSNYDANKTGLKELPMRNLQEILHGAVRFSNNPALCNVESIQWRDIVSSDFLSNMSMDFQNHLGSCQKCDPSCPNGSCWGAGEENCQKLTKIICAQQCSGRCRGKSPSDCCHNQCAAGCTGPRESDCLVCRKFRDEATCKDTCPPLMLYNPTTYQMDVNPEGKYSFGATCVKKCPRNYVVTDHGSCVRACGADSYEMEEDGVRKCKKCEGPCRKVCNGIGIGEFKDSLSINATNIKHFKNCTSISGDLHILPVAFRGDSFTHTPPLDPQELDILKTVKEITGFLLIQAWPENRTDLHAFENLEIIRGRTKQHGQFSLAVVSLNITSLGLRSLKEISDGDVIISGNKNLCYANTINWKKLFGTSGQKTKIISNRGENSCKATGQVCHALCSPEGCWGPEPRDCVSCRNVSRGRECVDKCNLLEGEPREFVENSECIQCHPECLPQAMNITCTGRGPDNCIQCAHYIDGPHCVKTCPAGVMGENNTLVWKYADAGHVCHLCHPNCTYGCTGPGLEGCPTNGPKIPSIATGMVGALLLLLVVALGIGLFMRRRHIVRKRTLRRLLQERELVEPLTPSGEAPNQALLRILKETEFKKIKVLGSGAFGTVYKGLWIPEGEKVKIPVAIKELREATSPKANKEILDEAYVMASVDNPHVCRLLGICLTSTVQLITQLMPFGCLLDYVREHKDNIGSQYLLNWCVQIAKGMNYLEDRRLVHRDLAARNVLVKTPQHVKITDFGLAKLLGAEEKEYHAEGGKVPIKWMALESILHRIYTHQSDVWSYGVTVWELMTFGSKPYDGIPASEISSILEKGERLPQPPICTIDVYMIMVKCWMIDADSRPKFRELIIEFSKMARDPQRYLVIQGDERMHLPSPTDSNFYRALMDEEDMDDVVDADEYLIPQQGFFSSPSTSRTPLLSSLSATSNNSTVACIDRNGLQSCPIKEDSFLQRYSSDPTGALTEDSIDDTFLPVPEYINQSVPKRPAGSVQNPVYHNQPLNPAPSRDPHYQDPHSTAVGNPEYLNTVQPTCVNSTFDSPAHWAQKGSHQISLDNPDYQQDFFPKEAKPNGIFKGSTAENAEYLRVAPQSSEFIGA
Experimental: Next, the binding affinity of both M-3-6 and M-3-6-D to HER2 ECD in vitro were measured by surface plasmon resonance (SPR) assay (FIG. 10 in supporting information). […]. In addition, EGFR, known as ERBB1, another member of the human epidermal growth factor receptor family was chosen to test the selectivity of M-3-6. […].
Binding kinetics of M-3-6 or M-3-6-D to HER2 was measured by surface plasmon resonance (OpenSPR, Nicoyalife). After HER2 was covalently coupled to the carboxyl sensor chips (Nicoyalife), M-3-6 or M-3-6-D in PBS running buffer (pH 7.4) was slowly flowed over the sensor chip for 5 min to allow interaction. The running buffer was then allowed to flow for 10 min to collect the dissociation data. After subtracting the background, the signal response vs. time curve was obtained, binding kinetic parameters were obtained by fitting the curve to a one-to-one binding model using Trace-Drawer (Nicoyalife) software.

P-AKT = test: Western blot of AKT phosphorylation in SKBR3 cells; type: cell-based
Experimental: as §1

[4] = 8 mg/kg i.p. every two days for two weeks

SMILES | inhibition of EGF-induced proliferation (in words) (SKBR3 cells) | degradation by pronase monitored by HPLC (pronase) | phosphorylation level of HER2 in tumor sections (P-HER2 [1]) | inhibition of HER2 phosphorylation (in words) (P-HER2 [2]) | expression of P-HER2 (P-HER2 [2]; SKBR3 cells, 4 h) | tumor volume / antitumor effect (SKBR3 tumor xenograft; [4]) | tumor volume after the last drug injection on day 12 (SKBR3 tumor xenograft) | improvement of binding to HER2 compared with monomer M-3-6 (HER2 ECD) [fold] | phosphorylation of ERK (in words) (P-ERK) | effect on body weight gain [3] | Kd (HER2) | IC50 (SKBR3 cells; serum-reduced, 72 h, read-out: IC50 antiproliferative activity on EGF-stimulated cells) [µM] | weaker binding to EGFR than to HER2 (EGFR) [fold] | IC50 (P-HER2 [2]; SKBR3 cells, 0-30 μM, 4 h, read-out: IC50 inhibition of HER2 phosphorylation) [µM] | tumor volume / antitumor effect (SKBR3 tumor xenograft; 32 mg/kg i.p. every two days for two weeks) | phosphorylation of AKT (in words) (P-AKT; SKBR3 cell lysates, western blot) | IC50 (P-AKT; SKBR3 cells, 4 h) [µM] | IC50 (P-ERK; SKBR3 cells, 4 h) [µM]
COc1cc(CC(=O)N2CC(=O)N[C@@H](Cc3ccccc3)CN(C(=O)Cc3ccc4ccccc4c3)CC(=O)N[C@@H](CCCCN)CN(C(=O)Cc3ccc4c(c3)OCO4)CC(=O)N[C@@H](CCCCN)CN(CC(=O)N[C@@H](CCCCNC(=O)COCCOCCNC(=O)Cn3cc(COc4cc(OCc5cn(CC(=O)NCCOCCOCC(=O)NCCCC[C@H](NC(=O)CN6C[C@H](CCCCN)NC(=O)CN(C(=O)Cc7ccc8c(c7)OCO8)C[C@H](CCCCN)NC(=O)CN(C(=O)Cc7ccc8ccccc8c7)C[C@H](Cc7ccccc7)NC(=O)CN(C(=O)Cc7cc(OC)cc(OC)c7)C[C@H](CC(C)C)NC(=O)c7ccc(cc7)CSCCC6=O)C(N)=O)nn5)cc(C(=O)NCCNC(=O)OC(C)(C)C)c4)nn3)C(N)=O)C(=O)CCSCc3ccc(cc3)C(=O)N[C@@H](CC(C)C)C2)cc(OC)c1 [M-3-6-D] | inhibited EGF-induced proliferation significantly in a dose-dependent manner | no detectable degradation | comparable efficiency with trastuzumab | even stronger inhibition of phosphorylation than M-3-6; also recorded: much more effective phosphorylation inhibition compared with M-3-6 | almost complete blocked | significantly inhibit the tumor growth; also recorded: significant antitumor effect | significant reduction in tumor volume was still observed | ~7 | more pronounced effect on the suppression of P-ERK compared with P-AKT | ignorable effect on the body weight gain | – | – | – | – | – | – | – | –
COc1cc(CC(=O)N2CC(=O)N[C@@H](Cc3ccccc3)CN(C(=O)Cc3ccc4ccccc4c3)CC(=O)N[C@@H](CCCCN)CN(C(=O)Cc3ccc4c(c3)OCO4)CC(=O)N[C@@H](CCCCN)CN(CC(=O)NCCC(=O)NC(CCCCNC(=S)Nc3ccc(-c4c5ccc(=O)cc-5oc5cc(O)ccc45)c(C(=O)O)c3)C(N)=O)C(=O)CCSCc3ccc(cc3)C(=O)N[C@@H](CC(C)C)C2)cc(OC)c1 (some centres unmarked) [M-3-6-F] | – | – | – | – | – | – | – | – | – | – | 0.28 µM and 0.278 µM | – | – | – | – | – | – | –
COc1cc(CC(=O)N2CC(=O)N[C@@H](Cc3ccccc3)CN(C(=O)Cc3ccc4ccccc4c3)CC(=O)N[C@@H](CCCCN)CN(C(=O)Cc3ccc4c(c3)OCO4)CC(=O)N[C@@H](CCCCN)CN(CC(N)=O)C(=O)CCSCc3ccc(cc3)C(=O)N[C@@H](CC(C)C)C2)cc(OC)c1 [M-3-6] | inhibited EGF-induced proliferation significantly in a dose-dependent manner | – | modest inhibitory effect | dose-dependent inhibition of HER2 receptor phosphorylation | relatively high | no significant reduction in tumor volume | significant tumor growth | – | reduction in the phosphorylation of AKT and ERK | ignorable effect on the body weight gain | – | 17.9 | 10 | 12.9 | much more improved antitumor effect | reduction in the phosphorylation of AKT and ERK | 16.9 | 10.6
